Source: US6759420B1, “Arylalkanoyl derivatives, processes for their preparation, their use and pharmaceutical compositions containing them” (Aventis Pharma Deutschland GmbH, priority 1999, dated 2004)
pKi: −log10 of the molar value. Structures can show the parent of a compound that is named as a salt.

Biological target: factor Xa (Homo sapiens, UniProt P00742)
Test: Factor Xa assay (Test 1a), chromogenic
Format: biochemical
Parameters: purchased Enzyme Research Laboratories, Inc; South Bend, Ind
Conditions: in vitro factor Xa assay Test 1a; human factor Xa 0.5 nM, substrate S-2765 140 μM, 25° C.; Ki from IC50 corrected for substrate competition
Description: The ability of a compound of formula (I) to inhibit factor Xa, thrombin, plasmin, elastase, and trypsin may be assessed by determining the concentration of compound of formula (I) that inhibits enzyme activity by 50% (IC50). Purified enzymes are used in chromogenic assays. To determine the inhibition constant, the IC50 value is corrected for competition with substrate using the formula:
Ki=IC50×(1/{1+((substrate concentration)/substrate Km)})
where Km is the Michaelis-Menten constant. Y. -C. Chen and W. H. Prusoff, Biochem. Pharmacol. 22: […] (1973), which is incorporated herein by reference.
TBS-PEG buffer (50 mM Tris-Cl, pH 7.8, 200 mM NaCl, 0.05% (w/v) PEG-8000, 0.02% (w/v) NaN3) is used for this assay. The IC50 is determined by combining in appropriate wells of a Costar half-area microtiter plate 25 μl human factor Xa (Enzyme Research Laboratories, Inc.; South Bend, Ind.) in TBS-PEG; 40 μl 10% (v/v) DMSO in TBS-PEG (uninhibited control) or various concentrations of the compound to be tested diluted in 10% (v/v) DMSO in TBS-PEG; and substrate S-2765 (N-benzyloxycarbonyl-D-Arg-Gly-L-Arg-p-nitroanilide; Kabi Pharmacia, Inc.; Franklin Ohio) in TBS-PEG.
The assays are performed by pre-incubating the compound of formula (I) plus enzyme for 10 min, then the assay is initiated by adding substrate to obtain a final volume of 100 μl. The initial velocity of chromogenic substrate hydrolysis is measured by the change in absorbance at 405 nm using a Bio-tek Instruments kinetic plate reader (Ceres UV900HDi) at 25° C. during the linear portion of the time course (usually 1.5 min after addition of substrate). The concentration of inhibitor that causes a 50% decrease in the rate of substrate hydrolysis is predicted by linear regression after plotting the relative rates of hydrolysis (compared to the uninhibited control) versus the log of the compound of formula (I) concentration. The enzyme concentration is 0.5 nM and substrate concentration is 140 μM.

Chain of factor Xa (P00742 235-488 limits assumed): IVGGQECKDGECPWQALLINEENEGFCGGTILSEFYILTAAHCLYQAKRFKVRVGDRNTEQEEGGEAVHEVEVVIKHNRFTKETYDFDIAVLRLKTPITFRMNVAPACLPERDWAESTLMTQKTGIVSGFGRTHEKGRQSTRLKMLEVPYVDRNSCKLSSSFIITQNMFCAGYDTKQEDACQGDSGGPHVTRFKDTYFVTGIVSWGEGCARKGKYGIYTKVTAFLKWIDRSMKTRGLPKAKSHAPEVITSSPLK
Chain of factor Xa (P00742 41-179 limits assumed): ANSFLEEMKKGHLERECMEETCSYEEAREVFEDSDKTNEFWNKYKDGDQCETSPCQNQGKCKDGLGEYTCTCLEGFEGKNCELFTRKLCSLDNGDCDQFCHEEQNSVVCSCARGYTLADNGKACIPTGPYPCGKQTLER

| pKi | Compound |
| --- | --- |
| 7.72 | N=C(N)NCCC[C@H](NC(=O)[C@@H](NC(=O)C(Cc1ccc(C(=N)N)cc1)C1CCCCC1)C1CCCCC1)C(=O)NCCc1ccccc1 (mixture of isomers) [Example 184, 2-(S)-{2-(R,S)-[3-(4-Carbamimidoyl-phenyl)-2-cyclohexyl-propionylamino]-2-(S)-cyclohexyl-acetylamino}-5-guanidino-pentanoic acid phenethyl-amide trifluoroacetic acid salt] |
| 8.40 | N=C(N)c1ccc(CNC(=O)C(NC(=O)C(Cc2ccc(C(=N)N)cc2)c2cccc(Br)c2)C2CCCCC2)cc1 (single isomer, unassigned; less polar) [Example 151] |
| 7.23 | N=C(N)c1ccc(CNC(=O)C(NC(=O)C(Cc2ccc(C(=N)N)cc2)C2CCCCC2)C2CCCCC2)cc1 (single isomer, unassigned; less polar) [Example 111] |
| 7.47 | N=C(N)NCCC[C@H](NC(=O)C(NC(=O)C(Cc1ccc(C(=N)N)cc1)C1CCCCC1)C1CCCCC1)C(=O)NCc1ccncc1 (stereo partly drawn) [Example 194, 2-(S)-{2-[3-(4-Carbamimidoyl-phenyl)-2-cyclohexyl-propionylamino]-2-cyclohexyl-acetylamino}-5-guanidino-pentanoic acid (pyridin-4-ylmethyl)-amide trifluoroacetic acid salt] |
| 8.30 | N=C(N)NCCCC(NC(=O)C(NC(=O)C(Cc1ccc(C(=N)N)cc1)C1CCCCC1)C1CCCCC1)C(=O)O (single isomer, unassigned; less polar) [Example 6] |
| 7.60 | Cc1ccccc1C(Cc1ccc(C(=N)N)cc1)C(=O)NC(C(=O)NCC1CCN(C(=N)N)CC1)C1CCCCC1 (single isomer, unassigned; more polar) [Example 162] |
| 9.05 | N=C(N)NCCC[C@H](NC(=O)[C@@H](NC(=O)C(Cc1ccc(C(=N)N)cc1)c1cccnc1)C1CCCCC1)C(N)=O (stereo partly drawn) [Example 10, 2-(S)-{2-(S)-[3-(4-Carbamimidoyl-phenyl)-2-(R,S)-pyridin-3-yl-propionylamino]-2-cyclohexyl-acetylamino}-5-guanidino-pentanoic acid amide trifluoroactic acid salt] |
| 7.89 | N=C(N)NCCC[C@H](NC(=O)[C@@H](NC(=O)C(Cc1ccc(C(=N)N)cc1)c1ccccc1)C1CCCCC1)C(N)=O (mixture of isomers) [Example 135, 2-(S)-{2-(S)-[3-(4-Carbamimidoyl-phenyl)-2-(R,S)-phenyl-propionylamino]-2-cyclohexyl-acetylamino}-5-guanidino-pentanoic acid amide hydrochloric acid salt] |
| 7.96 | CCOC(=O)[C@H](CCCNC(=N)N)NC(=O)[C@@H](NC(=O)C(Cc1ccc(C(=N)N)cc1)c1cccc(F)c1)C1CCCCC1 (mixture of isomers) [Example 126, 2-(S)-{2-(S)-[3-(4-Carbamimidoyl-phenyl)-2-(R,S)-(3-fluoro-phenyl)-propionylamino]-2-cyclohexyl-acetylamino}-5-guanidino-pentanoic acid ethyl ester hydrochloric acid salt] |
| 7.48 | N=C(N)c1ccc(CC(C(=O)NC(C(=O)NCC2CCN(C(=N)N)CC2)C2CCCCC2)c2ccc3ccccc3c2)cc1 (single isomer, unassigned; less polar) [Example 170] |
| 9.00 | N=C(N)c1ccc(CC(C(=O)NC(C(=O)NCC2CCN(C(=N)N)CC2)C2CCCCC2)c2ccc(Br)cc2)cc1 (single isomer, unassigned; less polar) [Example 177] |
| 7.80 | Cc1cccc(C(Cc2ccc(C(=N)N)cc2)C(=O)N[C@H](C(=O)N[C@@H](CCCNC(=N)N)C(N)=O)C2CCCCC2)c1 (mixture of isomers) [Example 122, 2-(S)-{2-(S)-[3-(4-Carbamimidoyl-phenyl)-2-(R,S)-m-tolyl-propionylamino]-2-cyclohexyl-acetylamino}-5-guanidino-pentanoic acid amide hydrochloric acid salt] |
| 7.64 | N=C(N)c1ccc(CNC(=O)C(NC(=O)C(Cc2ccc(C(=N)N)cc2)c2cccc(F)c2)C2CCCCC2)cc1 (single isomer, unassigned; less polar) [Example 149] |
| 7.38 | N=C(N)NCCC[C@H](NC(=O)C(NC(=O)C(Cc1ccc(C(=N)N)cc1)C1CCCCC1)C1CCCCC1)C(=O)NCc1ccc(Cl)cc1 (stereo partly drawn) [Example 201, 2-(S)-{2-[3-(4-Carbamimidoyl-phenyl)-2-cyclohexyl-propionylamino]-2-cyclohexyl-acetylamino}-5-guanidino-pentanoic acid 4-chloro-benzylamide trifluoroacetic acid salt] |
| 5.23 | Cc1ccc(C(Cc2ccc(C(=N)N)cc2)C(=O)NC(C(=O)NCc2ccc(C(=N)N)cc2)C2CCCCC2)cc1 (single isomer, unassigned; more polar) [Example 153] |
| 9.00 | CC(=N)N1CCC(CNC(=O)C(NC(=O)C(Cc2ccc(C(=N)N)cc2)c2cccc(Br)c2)C2CCCCC2)CC1 (single isomer, unassigned; less polar) [Example 223] |
| 9.00 | N=C(N)NCCCC(NC(=O)C(NC(=O)C(Cc1ccc(C(=N)N)cc1)c1cccc(Br)c1)C1CCCCC1)C(N)=O (single isomer, unassigned; less polar) [Example 133] |
| 8.52 | N=C(N)c1ccc(CNC(=O)[C@@H](NC(=O)C(Cc2ccc(C(=N)N)cc2)c2ccc3ccccc3c2)C2CCCCC2)cc1 (mixture of isomers) [Example 228, N-[(S)-(4-Carbamimidoyl-benzylcarbamoyl)-cyclohexyl-methyl]-3-(4-carbamimidoyl-phenyl)-2-(R,S)-naphthalen-2-yl-propionamide hydrochloric acid salt] |
| 7.70 | CCCOC(=O)C(CCCNC(=N)N)NC(=O)C(NC(=O)C(Cc1ccc(C(=N)N)cc1)C1CCCCC1)C1CCCCC1 (single isomer, unassigned; less polar) [Example 189] |
| 7.96 | Cc1cccc(C(Cc2ccc(C(=N)N)cc2)C(=O)NC(C(=O)NCC2CCN(C(=N)N)CC2)C2CCCCC2)c1 (single isomer, unassigned; less polar) [Example 159] |
| 8.40 | CC(=N)N1CCC(CNC(=O)C(NC(=O)C(Cc2ccc(C(=N)N)cc2)C2CCCCC2)C2CCCCC2)CC1 (single isomer, unassigned; less polar) [Example 137] |
| 7.14 | Cc1ccc(C(Cc2ccc(C(=N)N)cc2)C(=O)NC(C(=O)NCC2CCN(C(=N)N)CC2)C2CCCCC2)cc1 (single isomer, unassigned; less polar) [Example 172] |
| 7.55 | COc1ccc(CNC(=O)C(CCCNC(=N)N)NC(=O)C(NC(=O)C(Cc2ccc(C(=N)N)cc2)C2CCCCC2)C2CCCCC2)cc1 [Example 202, 2-(S)-{2-[3-(4-Carbamimidoyl-phenyl)-2-cyclohexyl-propionylamino]-2-cyclohexyl-acetylamino}-5-guanidino-pentanoic acid 4-methoxy-benzylamide trilfuoroacetic acid salt] |
| 9.00 | Cc1ccccc1C(Cc1ccc(C(=N)N)cc1)C(=O)NC(C(=O)NCC1CCN(C(=N)N)CC1)C1CCCCC1 (single isomer, unassigned; less polar) [Example 163] |

| Compound | pKi |
| --- | --- |
| CN(Cc1ccccc1)C(=O)[C@H](CCCNC(=N)N)NC(=O)C(NC(=O)C(Cc1ccc(C(=N)N)cc1)C1CCCCC1)C1CCCCC1 (single isomer, unassigned; less polar) [Example 183] | 7.60 |
| N=C(N)c1ccc(CC(C(=O)N[C@H](C(=O)NCC2CCN(C(=N)N)CC2)C2CCCCC2)c2ccc(Cl)cc2)cc1 (single isomer, unassigned; less polar) [Example 216] | 7.72 |
| CS(=O)(=O)c1cccc(C(Cc2ccc(C(=N)N)cc2)C(=O)N[C@H](C(=O)NCC2CCN(C(=N)N)CC2)C2CCCCC2)c1 (single isomer, unassigned; less polar) [Example 252] | 7.51 |
| N=C(N)c1ccc(CC(C(=O)N[C@H](C(=O)NCC2CCN(C(=N)N)CC2)C2CCCCC2)c2ccccc2F)cc1 (single isomer, unassigned; less polar) [Example 235] | 7.92 |
| C[n+]1ccc(CNC(=O)[C@@H](NC(=O)C(Cc2ccc(C(=N)N)cc2)c2ccccc2)C2CCCCC2)cc1 (single isomer, unassigned; less polar) [Example 86] | 6.22 |
| N=C(N)c1ccc(CC(C(=O)N[C@H](C(=O)NCC2CCN(C(=N)N)CC2)C2CCCCC2)c2ccccc2Br)cc1 (single isomer, unassigned; less polar) [Example 236] | 8.30 |
| N=C(N)c1ccc(CC(C(=O)N[C@H](C(=O)NCC2CCN(C(=N)N)CC2)C2CCCCC2)c2ccc(C(F)(F)F)cc2)cc1 (single isomer, unassigned; less polar) [Example 232] | 7.62 |
